Tests used:
SU-DHL-6 cells = experiment: SU-DHL-6 cell line based NHL-DLBCL model: daratumumab alone or with CHOP; format: in vivo, NOD SCID mice
Protocol: 5×10^6 SU-DHL-6 cells were implanted into NOD SCID mice and treatment initiated when the main tumor size reached approximately 154 mm^3. Daratumumab was administered at 10 mg/kg once a week for four weeks. CHOP was administered daily on days 0-5 using following doses: cyclophosphoamide (CTX): 5 mg/kg i.v.; doxorubicin: 0.5 mg/kg i.v; vincristine: 0.08 mg/kg i.v., prednisone: 0.03 mg/kg p.o. Tumor size was plotted as Mean±SEM.
SU-DHL-6 cell line based NHL-DLBCL model was utilized to study the efficacy of daratumumab alone or in combination with CHOP.
The SU-DHL-6 cells were maintained separately in vitro in RPMI1640 medium supplemented with 20% fetal bovine serum (v/v) at 37° C. in an atmosphere of 5% CO2 in air. The cells were routinely subcultured twice weekly. The cells growing in an exponential growth phase were harvested and counted for tumor inoculation. NOD SCID mice were γ-irradiated (200 rads) at 24 h before injection. Each mouse was inoculated subcutaneously at the right flank with SU-DHL-6 tumor cells (5×10^6) in 0.1 ml of PBS with matrigel (1:1) for tumor development. The treatments were started when the tumor size reaches approximately 154 mm^3. The date of tumor cell inoculation is denoted as day 0. Tumor sizes were measured twice weekly and % TGI values calculated as described in Example 1.
Animals were divided in four treatment groups and were administered vehicle, daratumumab, CHOP or daratumumab in combination with CHOP at dosages as described in Table 3.

NAMALWA cells = experiment: NAMALWA model of Burkitt's lymphoma: daratumumab alone or with CHOP; format: in vivo, NOD SCID mice
Protocol: 2×10^5 NAMALWA cells in matrigel were implanted into NOD SCID mice and treatment initiated when the main tumor size reached approximately 189 mm^3. Daratumumab was administered at 10 mg/kg once a week for three weeks. CHOP was administered daily on days 0-5 using following doses: cyclophosphoamide (CTX): 5 mg/kg i.v.; doxorubicin: 0.5 mg/kg i.v; vincristine: 0.08 mg/kg i.v., prednisone: 0.03 mg/kg p.o. Tumor volume was measured every three days. The Y-axis represents tumor volume±SEM
As a model for Burkitt's lymphoma, NAMALWA cells were utilized to study the efficacy of daratumumab alone or in combination with CHOP.
Namalwa cells were maintained in vitro in RPMI 1640 medium supplemented with fetal bovine serum (10% v/v), and L-glutamine (2 mM) at 37° C. in an atmosphere of 5% CO2 in air. The cells were routinely subcultured twice weekly by trypsin-EDTA treatment. The cells growing in an exponential growth phase were harvested and counted for tumor inoculation. The mice were injected with 2×10^5 Namalwa cells in 0.1 ml of PBS with matrigel (1:1) subcutaneously and the treatments were started when the mean tumor size reached 189 mm^3. The date of tumor cell inoculation is denoted as day 0. The major endpoint was to see if the tumor growth can be delayed or tumor-bearing mice can be cured. Tumor sizes were measured twice weekly and % TGI values calculated as described in Example 1.
Animals were divided in four treatment groups and were administered vehicle (isotype control), daratumumab, CHOP or daratumumab in combination with CHOP at dosages as described in Table 2.

[1] = tested on: ST1361 NHL-DLBCL (diffuse large B-cell lymphoma) PDX (patient derived xenograft) model; experiment: Patient-derived DLBCL xenograft ST1361: daratumumab alone or with CHOP or R-CHOP; format: in vivo, SCID/Beige mice; details: for % TGI (percent tumor growth inhibition): up to day 31, versus isotype control
Protocol: Resected DLBCL tumors were implanted in SCID/Beige mice. […] Daratumumab was administered at 20 mg/kg once a week for three weeks. CHOP and R-CHOP were administered once on day 0 except prednisone was administered on days 0-4 using the following regimens: CHOP: (cyclophosphoamide (CTX): 30 mg/kg i.v.; doxorubicin: 2.5 mg/kg i.v; vincristine: 0.4 mg/kg i.v); prednisone: 0.15 mg/kg p.o; R-CHOP: rituximab 20 mg/kg i.p. DAY 0. Tumor volume was measured every three days. The Y-axis represents tumor volume±SEM.
ST1361 is a NHL-DLBCL (diffuse large B-cell lymphoma) PDX (patient derived xenograft) model originating from a person chemo-naïve prior to metastatic sample collection.
Tumors were implanted in immunocompromised mice between 5-8 weeks of age. […] Daratumumab was dosed at 20 mg/kg once a week for 3 weeks. CHOP and R-CHOP at the concentrations described below were dosed once on day 0. CHOP (cyclophosphoamide: 30 mg/kg; doxorubicin: 2.5 mg/kg; vincristine: 0.4 mg/kg)-IV DAY 0; prednisone: 0.15 mg/kg DAYS 0-4; R-CHOP: rituximab 20 mg/kg-IP DAY 0. Beginning Day 0, tumor volume was measured twice weekly by digital caliper and data including individual and mean estimated tumor volumes (Mean TV±SEM) recorded for each group. The study was used to measure tumor growth inhibition until the control group was terminated and then continued as a survival study to evaluate the duration of daratumumab efficacy.
For the study, beginning Day 0, tumor dimensions were measured twice weekly by digital caliper and data including individual and mean estimated tumor volumes (mean TV±SEM) recorded for each group.

Daratumumab: anti-CD38 antibody, IgG1/κ; VH SEQ ID NO: 4, VL SEQ ID NO: 5; heavy chain SEQ ID NO: 12, light chain SEQ ID NO: 13
Tumor growth delay (SU-DHL-6 cells; at tumor size of 1,500 mm^3): 3 days | T/C value (SU-DHL-6 cells; day 32 post tumor inoculation): 45.45% | Antitumor activity in tumor size (SU-DHL-6 cells; day 32 post tumor inoculation, versus vehicle): significant antitumor activity | Mean tumor size (SU-DHL-6 cells; day 32 post tumor inoculation, daratumumab 10 mg/kg QW x 4, CHOP QD x 5): 1,946 mm^3 | Tumor growth delay (NAMALWA cells; at tumor size of 2,303 mm^3): 2 days | T/C value (NAMALWA cells; day 26 post tumor inoculation): 70.46% | Antitumor activity in tumor size (NAMALWA cells; day 26 post tumor inoculation, versus vehicle): significant antitumor activity | Mean tumor size (NAMALWA cells; day 26 post tumor inoculation, daratumumab 10 mg/kg QW x 3, CHOP QD x 5): 3,017 mm^3 | Mean tumor volume (mm^3) ± SEM ([1]; day 31, daratumumab 20 mg/kg once a week for 3 weeks, CHOP/R-CHOP once on day 0, prednisone days 0-4, day 0 volume 145-146 mm^3): 744 ± 236 mm^3 | % TGI (percent tumor growth inhibition) [1]: 71% | % TGI (percent tumor growth inhibition) ([1]; listed as daratumumab): ~71%
